Usually IC50 stands for the concentration that gives 50% inhibition.

The results in this text go back to patent US9663525B2, “Pyrazolopyrimidinyl inhibitors of ubiquitin-activating enzyme” (Millennium Pharmaceuticals, Inc., priority 2012, dated 2017).

Like-named read-outs stand apart in the source and are kept apart here. Bounds are passed on as bounds.

One test addresses mouse UAE (Mus musculus (Mouse), UniProt Q02053). The experiment in a line: Ubiquitin Activating Enzyme (UAE) HTRF assay, mouse UAE.
The target of another test is recombinant human UAE (Homo sapiens (Human), UniProt P22314). Description: Ubiquitin Activating Enzyme (UAE) HTRF assay, human UAE. In general terms: In TR-FRET formats the signal depends on donor and acceptor labels being close together.
Sequence of recombinant human UAE (P22314 whole entry): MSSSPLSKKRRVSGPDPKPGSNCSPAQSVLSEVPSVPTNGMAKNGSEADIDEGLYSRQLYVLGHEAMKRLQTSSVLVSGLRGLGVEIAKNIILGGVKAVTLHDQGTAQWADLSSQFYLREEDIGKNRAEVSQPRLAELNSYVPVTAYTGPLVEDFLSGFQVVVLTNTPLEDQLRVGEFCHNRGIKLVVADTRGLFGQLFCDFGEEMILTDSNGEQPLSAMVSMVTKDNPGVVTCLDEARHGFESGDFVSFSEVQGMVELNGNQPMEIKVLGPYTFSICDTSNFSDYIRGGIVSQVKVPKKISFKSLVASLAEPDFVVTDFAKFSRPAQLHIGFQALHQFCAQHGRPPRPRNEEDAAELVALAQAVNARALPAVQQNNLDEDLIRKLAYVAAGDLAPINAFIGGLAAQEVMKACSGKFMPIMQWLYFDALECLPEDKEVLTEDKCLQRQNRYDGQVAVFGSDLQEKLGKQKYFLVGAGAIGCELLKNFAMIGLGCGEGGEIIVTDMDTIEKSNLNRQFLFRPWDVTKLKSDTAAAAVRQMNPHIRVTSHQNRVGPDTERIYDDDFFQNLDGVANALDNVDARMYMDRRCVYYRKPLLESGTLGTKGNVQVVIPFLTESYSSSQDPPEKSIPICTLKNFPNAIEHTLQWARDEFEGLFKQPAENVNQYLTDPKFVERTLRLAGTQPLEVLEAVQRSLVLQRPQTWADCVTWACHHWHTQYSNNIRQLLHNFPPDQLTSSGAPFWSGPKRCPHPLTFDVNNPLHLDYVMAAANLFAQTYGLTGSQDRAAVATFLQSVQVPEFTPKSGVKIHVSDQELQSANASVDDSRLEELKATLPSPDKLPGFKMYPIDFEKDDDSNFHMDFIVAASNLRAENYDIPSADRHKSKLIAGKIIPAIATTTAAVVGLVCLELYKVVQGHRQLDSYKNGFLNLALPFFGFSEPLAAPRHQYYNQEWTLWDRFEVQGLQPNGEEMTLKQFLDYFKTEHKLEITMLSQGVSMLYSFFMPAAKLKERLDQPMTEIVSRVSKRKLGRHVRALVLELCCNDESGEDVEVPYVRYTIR

Sequence of mouse UAE (Q02053 whole entry): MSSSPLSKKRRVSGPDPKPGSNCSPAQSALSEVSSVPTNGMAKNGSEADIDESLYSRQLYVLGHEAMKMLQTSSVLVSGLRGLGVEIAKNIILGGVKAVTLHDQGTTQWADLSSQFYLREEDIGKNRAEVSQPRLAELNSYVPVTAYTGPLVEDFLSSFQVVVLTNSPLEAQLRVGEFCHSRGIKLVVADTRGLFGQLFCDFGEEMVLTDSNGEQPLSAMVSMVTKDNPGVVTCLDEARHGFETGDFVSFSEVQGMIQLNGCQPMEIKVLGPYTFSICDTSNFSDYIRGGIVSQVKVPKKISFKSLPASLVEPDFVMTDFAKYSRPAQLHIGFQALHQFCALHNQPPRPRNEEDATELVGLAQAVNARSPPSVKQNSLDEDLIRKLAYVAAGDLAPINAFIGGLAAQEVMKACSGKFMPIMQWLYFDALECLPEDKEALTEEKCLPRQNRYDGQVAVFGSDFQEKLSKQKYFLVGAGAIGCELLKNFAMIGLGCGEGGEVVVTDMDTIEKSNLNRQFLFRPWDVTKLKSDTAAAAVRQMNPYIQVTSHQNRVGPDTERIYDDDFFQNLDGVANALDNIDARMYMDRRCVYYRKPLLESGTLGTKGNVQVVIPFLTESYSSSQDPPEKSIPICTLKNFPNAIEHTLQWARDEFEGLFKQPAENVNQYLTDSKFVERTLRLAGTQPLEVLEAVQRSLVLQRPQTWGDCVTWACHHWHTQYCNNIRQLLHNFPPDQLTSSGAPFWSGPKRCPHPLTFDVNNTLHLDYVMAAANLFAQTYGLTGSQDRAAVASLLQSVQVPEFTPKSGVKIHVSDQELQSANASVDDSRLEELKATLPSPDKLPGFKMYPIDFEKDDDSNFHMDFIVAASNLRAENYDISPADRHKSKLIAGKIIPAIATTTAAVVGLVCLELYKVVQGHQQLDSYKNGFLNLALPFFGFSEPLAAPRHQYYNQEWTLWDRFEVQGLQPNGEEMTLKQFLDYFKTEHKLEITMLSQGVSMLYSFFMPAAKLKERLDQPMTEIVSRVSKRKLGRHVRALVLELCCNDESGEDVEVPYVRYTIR
Protocol for mouse UAE: (§1) After incubation for 120 minutes, quantification of the FRET is performed on the Pherostar (BMG).
(§2) For compounds whose values are marked with an asterisk (*), mouse UAE was used. For all other compounds, human UAE was used.
Protocol for recombinant human UAE: as §1, §2

As to `NS(=O)(=O)OC[C@H]1C[C@@H](Nc2ccnc3cc(-c4ccccc4)nn23)[C@H](O)[C@@H]1O` (racemic) [Compound I-001, (rac)-((1R,2R,3S,4R)-2,3-dihydroxy-4-(2-phenylpyrazolo[1,5-a]pyrimidin-7-ylamino)cyclopentyl)methyl rel-sulfamate], the IC50 at mouse UAE lay within 0.01 to 0.1 µM.
The same measure, in the same setting: to `NS(=O)(=O)OC[C@H]1C[C@@H](Nc2ccnc3cc(-c4cccc5ccccc45)nn23)[C@H](O)[C@@H]1O` (racemic) [Compound I-002, (rac)-((1R,2R,3S,4R)-2,3-dihydroxy-4-{[2-(1-naphthyl)pyrazolo[1,5-a]-pyrimidin-7-yl]amino}cyclopentyl)methyl rel-sulfamate] belongs under 0.01 µM.
The molecule `NS(=O)(=O)OC[C@H]1C[C@@H](Nc2ccnc3cc(-c4cccc(Cl)c4)nn23)[C@H](O)[C@@H]1O` (racemic) [Compound I-005, (rac)-((1R,2R,3S,4R)-4-((2-(3-Chlorophenyl)pyrazolo[1,5-a]pyrimidin-7-yl)amino)-2,3-dihydroxycyclopentyl)methyl rel-sulfamate] showed an IC50 against mouse UAE of under 0.01 µM.
On the same count and under the same terms, to `NS(=O)(=O)OC[C@H]1C[C@@H](Nc2cc(Cl)nc3cc(-c4ccccn4)nn23)[C@H](O)[C@@H]1O` (racemic) [Compound I-011, (rac)-((1R,2R,3S,4R)-4-(5-chloro-2-(pyridin-2-yl)pyrazolo[1,5-a]pyrimidin-7-ylamino)-2,3-dihydroxycyclopentyl)methyl rel-sulfamate] belongs 0.1 to 1 µM; to `NS(=O)(=O)OC[C@H]1C[C@@H](Nc2ccnc3cc(-c4ccccn4)nn23)[C@H](O)[C@@H]1O` (racemic) [Compound I-012, (rac)-[(1R,2R,3S,4R)-2,3-dihydroxy-4-{[2-(pyridin-2-yl)pyrazolo[1,5-a]pyrimidin-7-yl]amino}cyclopentyl]methyl rel-sulfamate], 0.01 to 0.1 µM; to `NS(=O)(=O)OC[C@H]1C[C@@H](Nc2ccnc3cc(-c4csc5cc(Cl)ccc45)nn23)[C@H](O)[C@@H]1O` (racemic) [Compound I-091, (rac)-((1R,2R,3S,4R)-4-(2-(6-chlorobenzo[b]thiophen-3-yl)pyrazolo[1,5-a]pyrimidin-7-ylamino)-2,3-dihydroxycyclopentyl)methyl rel-sulfamate], under 0.01 µM.
Regarding `Cc1cc(N[C@@H]2C[C@H](COS(N)(=O)=O)[C@@H](O)[C@H]2O)n2nc(-c3ccccc3)cc2n1` (relative stereo) [Compound I-004, (rac)-{(1R,2R,3S,4R)-2,3-dihydroxy-4-[(5-methyl-2-phenylpyrazolo[1,5-a]pyrimidin-7-yl)amino]cyclopentyl}methyl rel-sulfamate], the IC50 on recombinant human UAE is 0.1 to 1 µM.
Still for that read-out and setting: the value for `NS(=O)(=O)OC[C@H]1C[C@@H](Nc2cc(Cl)nc3cc(-c4ccccc4)nn23)[C@H](O)[C@@H]1O` (relative stereo) [Compound I-006, (rac)-{(1R,2R,3S,4R)-4-[(5-chloro-2-phenylpyrazolo[1,5-a]pyrimidin-7-yl)amino]-2,3-dihydroxycyclopentyl}methyl rel-sulfamate] was 0.1 to 1 µM; that for `Cc1cnc2cc(-c3ccccc3)nn2c1N[C@@H]1C[C@H](COS(N)(=O)=O)[C@@H](O)[C@H]1O` (relative stereo) [Compound I-089, (rac)-{(1R,2R,3S,4R)-2,3-dihydroxy-4-[(6-methyl-2-phenylpyrazolo[1,5-a]pyrimidin-7-yl)amino]cyclopentyl}methyl rel-sulfamate] was 0.1 to 1 µM.
Take `COC(=O)c1ccc2c(-c3cc4nccc(N[C@@H]5C[C@H](COS(N)(=O)=O)[C@@H](O)[C@H]5O)n4n3)cccc2c1` (relative stereo) [Compound I-096, (rac)-methyl rel-5-[7-({(1R,2S,3R,4R)-2,3-dihydroxy-4-[(sulfamoyloxy)methyl]cyclopentyl}amino)pyrazolo[1,5-a]pyrimidin-2-yl]-2-naphthoate]: the half-maximal inhibitory concentration (IC50) on recombinant human UAE is under 0.01 µM.
Same read-out and setting: the value for `CC(CO)(CCl)c1cccc(-c2cc3nccc(N[C@@H]4C[C@H](COS(N)(=O)=O)[C@@H](O)[C@H]4O)n3n2)c1` (relative stereo) [Compound I-123, (rac)-{(1R,2R,3S,4R)-4-[(2-{3-[2-chloro-1-(hydroxymethyl)-1-methylethyl]phenyl}pyrazolo[1,5-a]pyrimidin-7-yl)amino]-2,3-dihydroxycyclopentyl}methyl rel-sulfamate] was under 0.01 µM.
As to `NS(=O)(=O)OC[C@H]1C[C@@H](Nc2ccnc3cc(-c4cccc5ccccc45)nn23)[C@H](O)[C@@H]1O` [Compound I-098, (s.e.)-((1R,2R,3S,4R)-2,3-dihydroxy-4-{[2-(1-naphthyl)pyrazolo[1,5-a]pyrimidin-7-yl]amino}cyclopentyl)methyl sulfamate], the 50% inhibitory concentration (IC50) at recombinant human UAE (human UAE) is under 0.01 µM.
With `COc1ccc(OC(F)(F)F)cc1-c1cc2nccc(N[C@@H]3C[C@H](COS(N)(=O)=O)[C@@H](O)[C@H]3O)n2n1` [Compound I-102, (s.e)-[(1R,2R,3S,4R)-2,3-dihydroxy-4-({2-[2-methoxy-5-(trifluoromethoxy)-phenyl]pyrazolo[1,5-a]pyrimidin-7-yl}amino)cyclopentyl]methyl sulfamate], at recombinant human UAE (human UAE), the concentration for half-maximal inhibition (IC50) is under 0.01 µM.
`NS(=O)(=O)OC[C@H]1C[C@@H](Nc2ccnc3cc(-c4cccc5c4oc4ccccc45)nn23)[C@H](O)[C@@H]1O` [Compound I-103, (s.e.)-((1R,2R,3S,4R)-4-(2-(dibenzo[b,d]furan-4-yl)pyrazolo[1,5-a]pyrimidin-7-ylamino)-2,3-dihydroxycyclopentyl)methyl sulfamate]: the concentration for half-maximal inhibition (IC50) on recombinant human UAE (human UAE) was under 0.01 µM.
Same read-out and setting: the value for `COc1ccc2ccccc2c1-c1cc2nccc(N[C@@H]3C[C@H](COS(N)(=O)=O)[C@@H](O)[C@H]3O)n2n1` [Compound I-104, (s.e.)-((1R,2R,3S,4R)-2,3-dihydroxy-4-(2-(2-methoxynaphthalen-1-yl)pyrazolo[1,5-a]pyrimidin-7-ylamino)cyclopentyl)methyl sulfamate] was under 0.01 µM; that for `COc1ccc(-c2cc3nccc(N[C@@H]4C[C@H](COS(N)(=O)=O)[C@@H](O)[C@H]4O)n3n2)c2ccccc12` [Compound I-106, (s.e.)-((1R,2R,3S,4R)-2,3-dihydroxy-4-(2-(4-methoxynaphthalen-1-yl)pyrazolo[1,5-a]pyrimidin-7-ylamino)cyclopentyl)methyl sulfamate] was under 0.01 µM.
The same measure, in the same setting: the value for `CN(C)c1ccc(-c2cc3nccc(N[C@@H]4C[C@H](COS(N)(=O)=O)[C@@H](O)[C@H]4O)n3n2)c2ccccc12` [Compound I-107, (s.e.)-((1R,2R,3S,4R)-4-(2-(4-(dimethylamino)naphthalen-1-yl)pyrazolo[1,5-a]pyrimidin-7-ylamino)-2,3-dihydroxycyclopentyl)methyl sulfamate] was under 0.01 µM; that for `CC(C)Oc1ccc2ccccc2c1-c1cc2nccc(N[C@@H]3C[C@H](COS(N)(=O)=O)[C@@H](O)[C@H]3O)n2n1` [Compound I-109, (s.e.)-((1R,2R,3S,4R)-2,3-dihydroxy-4-(2-(2-isopropoxynaphthalen-1-yl)pyrazolo[1,5-a]pyrimidin-7-ylamino)cyclopentyl)methyl sulfamate] was under 0.01 µM.
As to `NS(=O)(=O)OC[C@H]1C[C@@H](Nc2ccnc3cc(-c4c(OC(F)F)ccc5ccccc45)nn23)[C@H](O)[C@@H]1O` [Compound I-110, (s.e.)-((1R,2R,3S,4R)-4-(2-(2-(difluoromethoxy)naphthalen-1-yl)pyrazolo[1,5-a]pyrimidin-7-ylamino)-2,3-dihydroxycyclopentyl)methyl sulfamate], at recombinant human UAE (human UAE), the IC50 was under 0.01 µM.
As to `NS(=O)(=O)OC[C@H]1C[C@@H](Nc2ccnc3cc(-c4cccc5cc(C(F)F)ccc45)nn23)[C@H](O)[C@@H]1O` [Compound I-111, (s.e.)-((1R,2R,3S,4R)-4-(2-(6-(difluoromethyl)naphthalen-1-yl)pyrazolo[1,5-a]pyrimidin-7-ylamino)-2,3-dihydroxycyclopentyl)methyl sulfamate], the half-maximal inhibitory concentration (IC50) at recombinant human UAE (human UAE) was under 0.01 µM.
Same read-out and setting: to `NS(=O)(=O)OC[C@H]1C[C@@H](Nc2ccnc3cc(-c4ccc(OC(F)F)c5ccccc45)nn23)[C@H](O)[C@@H]1O` [Compound I-112, (s.e.)-((1R,2R,3S,4R)-4-(2-(4-(difluoromethoxy)naphthalen-1-yl)pyrazolo[1,5-a]pyrimidin-7-ylamino)-2,3-dihydroxycyclopentyl)methyl sulfamate] belongs under 0.01 µM.
As for `NS(=O)(=O)OC[C@H]1C[C@@H](Nc2ccnc3cc(-c4c(Cl)cc(Cl)c5ccccc45)nn23)[C@H](O)[C@@H]1O` [Compound I-117, (s.e.)-((1R,2R,3S,4R)-4-(2-(2,4-dichloronaphthalen-1-yl)pyrazolo[1,5-a]pyrimidin-7-ylamino)-2,3-dihydroxycyclopentyl)methyl sulfamate], the IC50 on recombinant human UAE lay in the range of 0.01 to 0.1 µM.
Turning to `COc1ccc(SC(F)(F)F)cc1-c1cc2nccc(N[C@@H]3C[C@H](COS(N)(=O)=O)[C@@H](O)[C@H]3O)n2n1` [Compound I-120, (s.e.)-((1R,2R,3S,4R)-2,3-dihydroxy-4-(2-(2-methoxy-5-(trifluoromethylthio)-phenyl)pyrazolo[1,5-a]pyrimidin-7-ylamino)cyclopentyl)methyl sulfamate], the IC50 at recombinant human UAE (human UAE) is under 0.01 µM.
For the molecule `NS(=O)(=O)OC[C@H]1C[C@@H](Nc2c(Cl)cnc3c(Cl)c(-c4cccc(SC(F)(F)F)c4)nn23)[C@H](O)[C@@H]1O` [Compound I-124, (s.e.)-{(1R,2R,3S,4R)-4-[(3,6-dichloro-2-{3-[(trifluoromethyl)sulfanyl]phenyl}pyrazolo[1,5-a]pyrimidin-7-yl)amino]-2,3-dihydroxycyclopentyl}methyl sulfamate], the IC50 at recombinant human UAE lay in the range of 0.1 to 1 µM.
On the same count and under the same terms, to `NS(=O)(=O)OC[C@H]1C[C@@H](Nc2c(Cl)cnc3cc(-c4cccc(SC(F)(F)F)c4)nn23)[C@H](O)[C@@H]1O` [Compound I-125, (s.e.)-{(1R,2R,3S,4R)-4-[(6-chloro-2-{3-[(trifluoromethyl)sulfanyl]phenyl}pyrazolo[1,5-a]pyrimidin-7-yl)amino]-2,3-dihydroxycyclopentyl}methyl sulfamate] belongs 0.1 to 1 µM.
